Source: paper PMC5729604, “Dual inhibitors of hepatitis C virus and hepatocellular carcinoma: design, synthesis and docking studies” (Future Science OA, 2017)
In brackets after ≈: the same amount, converted by molar mass. Like-named read-outs stand apart in the source and are kept apart here.

How the values were obtained:
[1] = system: human HCC cell line HepG2; assay: cells; format: cell-based; conditions: for IC50: Homo sapiens, HepG2, 72 h, neutral red; for IC50 / (LD0) HepG2 / Safe doses (100% viability of HepG2) LD0: 72 h; for (LD0) HepG2 / Safe doses (100% viability of HepG2) LD0: human; for in vitro anticancer activity against HepG2, in words: IC50 <100 μg/ml potential, 100-1000 μg/ml moderate; for Selectivity index: LD50 on PBMC / IC50 on HepG2
Experimental: The safe compounds on RBCs (5a-g, 5i-l, 5p-r, 5v-w, 6b-g) were screened for their potential anticancer activity against human HCC cell line HepG2. HepG2 cells were exposed to the test compounds, then viability of cells was measured using neutral red uptake assay as described by Borenfreund and Puerner. This assay depends on the fact that neutral red dye can be incorporated into the lysosomes of living cells providing a quantitative assay to the cytotoxic effects. The results were interpreted to calculate both the concentration causing 50% cancer cell death (IC50) of each compound and the maximum safe concentration that cause 100% viability (LD0; to be used in the in vitro anti-HCV testing) using GraphPad InStat 3.0 software (Figure 5 & Supplementary Table 2).
HepG2 cells were routinely maintained as adherent cell cultures in RPMI-1640 medium (Lonza Group Ltd, Basel, Switzerland) supplemented with 10% fetal bovine serum (FBS; Lonza, IL, USA) at 37°C in a humidified air incubator containing 5% CO2. Cells were subcultured for 2 weeks before assay. Cell viability was assessed using trypan blue exclusion method.
HepG2 cells were washed twice in RPMI-1640 medium supplemented with 200 μM L-glutamine (Lonza) and […] 4-(2-hydroxyethyl)-1-piperazineethanesulfonic acid (HEPES) buffer (Lonza). The cells were suspended at 3 × 10^4 cells/ml in RPMI culture medium (RPMI supplemented medium and 10% FBS). The appropriate number of cells was chosen to be 3 × 10^3 cells/well (100 μl of the prepared suspension), and the cells were left to adhere on the polystyrene 96-well plates in an incubator at 37°C, 5% CO2 and 95% humidity for 24 h. The cells were washed once using RPMI supplemented medium.
A 2 mg/ml stock solution of each compound was prepared in DMF and filtered using a 0.2 μM syringe filter. The desired concentrations (20, 10, 5, 2.5 and 1.25 μg/ml) were prepared using serial dilution in a 96-well plate. Compound wells were prepared by adding 100 μl of the previously prepared concentrations to a 100 μl of HepG2 cells suspension. Parallel concentrations of the solvent were prepared to be used as controls. 5-Fluorouracil was used as a positive control. Control wells were prepared by adding 100 μl culture media to a 100 μl of HepG2 cells suspension. Blank wells contained 200 μl of culture media only (without cells or compound solution). Each set of samples was pipetted in duplicate. The plate was gently shaken, then incubated at 37°C, 5% CO2 for 72 h.
After incubation, the plate was centrifuged (2000 r.p.m. for 10 min). The media were discarded by inversion over paper towels. A working solution (100 μg/ml) of neutral red stain (Bio Basic Inc, Markham, Canada) was prepared, and 100 μl of this solution was added to each well, then the plate was gently shaken. The plate was incubated at 37°C in humidified 5% CO2 for 3 h, and then centrifuged (2000 r.p.m. for 10 min). Excess dyes were discarded, and the cells were fixed with 100 μl fixing solution (0.5% formalin with 1% calcium chloride [Sigma-Aldrich]) for 1 min. Cells were destained in 100 μl destaining solution (50% ethanol with 1% glacial acetic acid [Sigma-Aldrich]) for 5 min by shaking. The stain intensity was assayed using automated microplate reader spectrophotometer adjusted at 490 nm. Surviving cell fraction was calculated according to the following equation: [drawing 3]
The results were interpreted to calculate both the concentration causing 50% cancer cell death (IC50) of each compound and the maximum safe concentration that cause 100% viability (LD0; to be used in the in vitro anti-HCV testing) using GraphPad InStat 3.0 software.

[2] = system: human peripheral blood mononuclear cells (PBMCs); format: cell-based; conditions: 72 h
Experimental: The safe compounds on RBCs (5a-g, 5i-l, 5p-r, 5v-w, 6b-g) were subjected to the in vitro cytotoxicity assay on human peripheral blood mononuclear cells (PBMCs). Viability of cells was measured using neutral red uptake assay as described by Borenfreund and Puerner to determine the concentrations of each compound that were not cytotoxic. The results were interpreted to calculate both the lethal concentration that kills 50% of cells (LD50) and the maximum safe concentration that causes 100% viability (LD0) of each compound using GraphPad InStat 3.0 software (Figure 6 & Supplementary Table 3).
The PBMCs were isolated by density gradient centrifugation technique as described by Boyum. Blood samples were freshly collected into heparinized or ethylenediaminetetraacetic acid sterile tubes. Blood was diluted using equal volume of RPMI-1640 medium containing 25 mM HEPES and then layered over equal volume of Ficoll-Pague™ Plus (Fisher BioReagents™ Lymphocyte Separation Medium-LSM, PA, USA) and centrifuged (2000 r.p.m. for 30 min at acceleration and deceleration speeds zero & zero) at room temperature. The buffy mononuclear cell layer was collected using sterile Pasteur pipette into 50 ml sterile Falcon tube and washed twice in phosphate-buffered saline (Sigma-Aldrich) using centrifugation (1650 r.p.m. for 5 min). The isolated PBMCs viability was determined by hemocytometer count using the trypan blue exclusion method. The PBMCs were resuspended at 1 × 10^6 cells/ml in RPMI-1640 medium containing 25 mM HEPES supplemented with 10% heat-inactivated FBS. The appropriate number of cells was chosen to be 1 × 10^5 cells/well (100 μl of the prepared suspension).
A 2 mg/ml stock solution of each compound was prepared in DMF and filtered using a 0.2 μM syringe filter. The desired concentrations (20, 10, 5, 2.5 and 1.25 μg/ml) were prepared using serial dilution in a 96-well plate. Compound wells were prepared by adding 100 μl of the previously prepared concentrations to a suspension of 1 × 10^5 PBMCs in 100 μl culture media. Parallel concentrations of the solvent were prepared to be used as controls. Control wells were prepared by adding 100 μl culture media to a suspension of 1 × 10^5 PBMCs in 100 μl culture media. Blank wells contained 200 μl of culture media only (without cells or compound solution). Each set of samples was pipetted in duplicate. The plate was then gently shaken then incubated at 37°C, 5% CO2 for 72 h.
After incubation, neutral red assay was performed as described previously, and surviving cell fraction was calculated according to the previously mentioned equation. Also, the results were interpreted to calculate both the lethal concentration that kills 50% of cells (LD50) and the maximum safe concentration that cause 100% viability (LD0) of each compound using GraphPad InStat 3.0 software.

[3] = Supplementary Table 2, read-out: Anticancer (HepG2) IC50
[4] = Table 1, read-out: IC50 (HepG2)

IC50 [1, 3] [µg/mL] | IC50 [1, 4] [µg/mL] | Compound | (LD0) HepG2 [1] [µg/mL] | Safe doses (100% viability of HepG2) LD0 [1] [µg/mL] | (LD0) PBMCs [2] [µg/mL] | LD0 [2] [µg/mL] | LD50 [2] [µg/mL] | in vitro anticancer activity against HepG2, in words [1] | Selectivity index [1] | LD50 (PBMCs) [2] [µg/mL]
193 (≈ 316 µM) | – | COc1ccc(N2C(=O)C(=Cc3cn(-c4ccccc4)nc3-c3ccccc3)SC2=NN=C(C)c2cc3ccccc3o2)cc1 [Compound 5g, 2-[1-(Benzofuran-2-yl)ethylidenehydrazono]-5-[(1,3-Diphenyl-1H-pyrazol-4-yl)methylene]-3-(4-methoxyphenyl)thiazolidin-4-one] | 66.72 | 66.72 | 8.88 | 8.88 | 39.01 | – | – | –
– | 76.8 (≈ 151 µM) | COc1ccc(N2C(=O)C(=C3C(=O)Nc4ccccc43)SC2=NN=C(C)c2cc3ccccc3o2)cc1 [Compound 6c, 2-[1-(Benzofuran-2-yl)ethylidenehydrazono]-5-(2-oxoindolin-3-ylidene)-3-(4-methoxyphenyl)thiazolidin-4-one] | 3.40 | 3.40 | 11.41 | 11.41 | 28.67 | potential in vitro anticancer activity | 0.37 | 28.67
248 (≈ 487 µM) | – | COc1ccc(N2C(=O)C(=C3C(=O)Nc4ccccc43)SC2=NN=C(C)c2nc3ccccc3[nH]2)cc1 [Compound 6g, 2-[1-(1H-Benzimidazole-2-yl)ethylidenehydrazono]-5-(2-oxoindolin-3-ylidene)-3-(4-methoxyphenyl)thiazolidin-4-one] | 18.62 | 18.62 | 14.41 | 14.41 | 136.76 | – | – | –

The remaining lines, values behind:

Compound | IC50 [1, 3] [µg/mL] | IC50 [1, 4] [µg/mL] | (LD0) HepG2 [1] [µg/mL] | Safe doses (100% viability of HepG2) LD0 [1] [µg/mL] | (LD0) PBMCs [2] [µg/mL] | LD0 [2] [µg/mL] | LD50 [2] [µg/mL] | in vitro anticancer activity against HepG2, in words [1] | Selectivity index [1] | LD50 (PBMCs) [2] [µg/mL]
CC(=NN=C1SC(=Cc2cn(-c3ccccc3)nc2-c2ccc(Cl)cc2)C(=O)N1C1CCCCC1)c1cc2ccccc2o1 [Compound 5k, 2-[1-(Benzofuran-2-yl)ethylidenehydrazono]-5-{[3-(4-chlorophenyl)-1-phenyl-1H-pyrazol-4-yl]methylene}-3-cyclohexylthiazolidin-4-one] | 150 (≈ 242 µM) | – | 56.74 | 56.74 | 33.29 | 33.29 | 319.64 | – | – | –
COc1ccc(-c2nn(-c3ccccc3)cc2C=C2SC(=NN=C(C)c3cc4ccccc4o3)N(c3ccc(OC)cc3)C2=O)cc1 [Compound 5i, 2-[1-(Benzofuran-2-yl)ethylidenehydrazono]-5-{[3-(4-methoxyphenyl)-1-phenyl-1H-pyrazol-4-yl]methylene}-3-(4-methoxyphenyl)thiazolidin-4-one] | 120 (≈ 188 µM) | – | 0.05 | 0.05 | 7.60 | 7.60 | 25.35 | – | – | –
CC(=NN=C1SC(=Cc2cn(-c3ccccc3)nc2-c2ccc(Cl)cc2)C(=O)N1c1ccc(Cl)cc1)c1cc2ccccc2o1 [Compound 5e, 2-[1-(Benzofuran-2-yl)ethylidenehydrazono]-5-{[3-(4-chlorophenyl)-1-phenyl-1H-pyrazol-4-yl]methylene}-3-(4-chlorophenyl)thiazolidin-4-one] | 318 (≈ 490 µM) | – | 31.12 | 31.12 | 4.26 | 4.26 | 117.12 | – | – | –
COc1ccc(-c2nn(-c3ccccc3)cc2C=C2SC(=NN=C(C)c3cc4ccccc4o3)N(c3ccccc3)C2=O)cc1 [Compound 5c, 2-[1-(Benzofuran-2-yl)ethylidenehydrazono]-5-{[3-(4-methoxyphenyl)-1-phenyl-1H-pyrazol-4-yl]methylene}-3-phenylthiazolidin-4-one] | 143 (≈ 235 µM) | – | 5.88 | 5.88 | 32.45 | 32.45 | 139.19 | – | – | –
CC(=NN=C1SC(=Cc2cn(-c3ccccc3)nc2-c2ccc(Cl)cc2)C(=O)N1C1CCCCC1)c1nc2ccccc2[nH]1 [Compound 5w, 2-[1-(1H-Benzimidazole-2-yl)ethylidenehydrazono]-5-{[3-(4-chlorophenyl)-1-phenyl-1H-pyrazol-4-yl]methylene}-3-cyclohexylthiazolidin-4-one] | 1100 (≈ 1770 µM) | – | 92.40 | 92.40 | 16.03 | 16.03 | 36.28 | very weak anticancer activity | – | –
COc1ccc(-c2nn(-c3ccccc3)cc2C=C2SC(=NN=C(C)c3cc4ccccc4o3)N(C3CCCCC3)C2=O)cc1 [Compound 5l, 2-[1-(Benzofuran-2-yl)ethylidenehydrazono]-5-{[3-(4-methoxyphenyl)-1-phenyl-1H-pyrazol-4-yl]methylene}-3-cyclohexylthiazolidin-4-one] | – | 82.1 (≈ 133 µM) | 5.11 | 5.11 | 8.33 | 8.33 | 46.89 | potential in vitro anticancer activity | 0.57 | 46.89
